From publication PMC10133546, “Simultaneous determination of multiple components in rat plasma by UHPLC-sMRM for pharmacokinetic studies after oral administration of Qingjin Yiqi Granules” (Frontiers in Pharmacology, 2023)
Where two headings read alike, the source gives them in different places.

Assays:
[1] = Pharmacokinetic study in rat plasma after oral administration of QJYQ (UHPLC-sMRM); assay type: in vivo, Sprague-Dawley rats
Experimental: Exion LC AD tandem Blueline 3500 triple quadrupole mass spectrometer (AB SCIEX, Framingham, MA, United States) was used to thirty-three compounds in rat plasma. […] The whole detailed parameters of sMRM were obtained in Supplementary Table S1.
Rat plasma (100 μL) was mixed with 10% formic acid (10 μL) and vortexed for 1 min at room temperature. ISs (10 μL) and methanol/acetonitrile (1/1, v/v) (400 μL) were added and vortexed for 5 min, then centrifuged for 10 min at 14,000 rpm and 4°C. The transported supernatant was condensed to dryness under the flow of nitrogen gas. The dried residue was reconstituted with 70% methanol (100 μL) by vortex-mixing for 5 min and centrifuging at 14,000 rpm for 10 min. Last, 2 μL of the solution were injected into the UHPLC-sMRM system.
The pharmacokinetic study was approved by the Animal Ethics Committee of Tianjin University of Traditional Chinese Medicine (TCM-LAEC2021228). Ten male Sprague-Dawley rats (weight 220–240 g) was kept at the animal center of Tianjin University of Traditional Chinese Medicine (Tianjin, China). […] The sample was transferred right away following a 10 min period of centrifugation at 7000 rpm and 4°C. All plasma samples were frozen and stored at −80°C.
All the pharmacokinetic parameters were calculated using the DAS 1.0 software (Drug and Statistics 1.0, Medical College of Wannan, China). Pharmacokinetic parameters include the maximum drug concentration in plasma (Cmax), the time to achieve maximum drug concentration (Tmax), the area under the plasma concentration-time curve (AUC), elimination half-life (T1/2), and mean residence time (MRT). The pharmacokinetic parameters were computed using the non-compartmental model. All data are expressed as mean ± standard deviation (SD). GraphPad Prism 8.0 (GraphPad Software Inc., La Jolla, CA, United States) software was used to draw the drug-time curve.

[2] = Stability of the working solution (4°C for 1 month); assay type: physicochemical
Experimental: (§1) The stability of analytes in plasma was evaluated by analyzing 4 QC samples (n = 6). The stability was included auto-sampler stability (keeping the sample in auto-sampler for 24 h), three times of freeze-thaw cycles stability (freezing cycle at −80°C, thawing cycle at room temperature), room temperature stability (storing samples at room temperature for 24 h), long-term stability (storing samples at −80°C for 1 month). […] Accompanying curve was established when testing the sample, calculate and compare the ratio of the actual measured concentration to the theoretical concentration, expressed in accuracy and RSD.

[3] = Stability of analytes in rat plasma (auto-sampler, freeze-thaw, room temperature, long-term); conditions: for Autosampler for 24 h Accuracy (%): autosampler 24 h; for Room temperature for 24 h Accuracy (%): room temperature 24 h; for Freeze thaw cycles Accuracy (%): three freeze-thaw cycles; for −80°C for 1month Accuracy (%): −80°C 1 month
Experimental: as §1

[4] = rat plasma, oral QJYQ 3.15 g/kg, n = 8, mean ± SD

Row | Working solution Accuracy (%) ([2]; 100 ng/mL) | Working solution Accuracy (%) ([2]; 500 ng/mL) | Autosampler for 24 h Accuracy (%) ([3]; 12.5 ng/mL) | Room temperature for 24 h Accuracy (%) ([3]; 12.5 ng/mL) | Freeze thaw cycles Accuracy (%) ([3]; 12.5 ng/mL) | −80°C for 1month Accuracy (%) ([3]; 12.5 ng/mL) | Autosampler for 24 h Accuracy (%) ([3]; 100 ng/mL) | Room temperature for 24 h Accuracy (%) ([3]; 100 ng/mL) | Freeze thaw cycles Accuracy (%) ([3]; 100 ng/mL) | −80°C for 1month Accuracy (%) ([3]; 100 ng/mL) | Autosampler for 24 h Accuracy (%) ([3]; 500 ng/mL) | Room temperature for 24 h Accuracy (%) ([3]; 500 ng/mL) | Freeze thaw cycles Accuracy (%) ([3]; 500 ng/mL) | −80°C for 1month Accuracy (%) ([3]; 500 ng/mL) | Compound | Working solution Accuracy (%) ([2]; 12.5 ng/mL) | Working solution Accuracy (%) ([2]; 50 ng/mL) | Autosampler for 24 h Accuracy (%) ([3]; 50 ng/mL) | Room temperature for 24 h Accuracy (%) ([3]; 50 ng/mL) | further results
1 | 95.9% | 92.8% | 102.0% | 96.1% | 95.2% | 85.1% | 96.9% | 98.7% | 87.0% | 115.0% | 115.0% | 97.8% | 88.7% | 109.0% | O=C(O)C=Cc1ccc(O)cc1 [p-Coumaric acid] |  |  |  |  | half-life ([1]; male, Sprague-Dawley, rat plasma, oral QJYQ 3.15 g/kg, n = 8, mean ± SD): 1.79 ± 0.38 h; AUC(0-t) ([1]; male, Sprague-Dawley, rat plasma, oral QJYQ 3.15 g/kg, n = 8, mean ± SD, read-out: AUC(0-t)): 381 ± 101 ng·h/mL; AUC(0-inf) ([1]; male, Sprague-Dawley, rat plasma, oral QJYQ 3.15 g/kg, n = 8, mean ± SD, read-out: AUC(0-∞)): 385 ± 126 ng·h/mL; Cmax ([1]; male, Sprague-Dawley, rat plasma, oral QJYQ 3.15 g/kg, n = 8, mean ± SD, read-out: Cmax): 153 ± 33.4 ng/mL; MRT inf ([1]; male, Sprague-Dawley, rat plasma, oral QJYQ 3.15 g/kg, n = 8, mean ± SD, read-out: MRT (0-∞)): 3.63 ± 1.57 h; MRT last ([1]; male, Sprague-Dawley, rat plasma, oral QJYQ 3.15 g/kg, n = 8, mean ± SD, read-out: MRT(0-t)): 3.03 ± 1.01 h; Working solution Accuracy (%) ([2]; 1.56 ng/mL): 81.9%; Autosampler for 24 h Accuracy (%) ([3]; 1.56 ng/mL): 83.2%; Room temperature for 24 h Accuracy (%) ([3]; 1.56 ng/mL): 82.7%; Freeze thaw cycles Accuracy (%) ([3]; 1.56 ng/mL): 95.1%; −80°C for 1month Accuracy (%) ([3]; 1.56 ng/mL): 110.0%
2 | 86.2% | 96.4% | 84.9% | 104.0% | 93.8% | 89.1% | 89.7% | 91.2% | 87.8% | 95.7% | 88.3% | 104.0% | 88.5% | 104.0% | COC(=O)C1=CO[C@@H](O[C@@H]2O[C@H](CO)[C@@H](O)[C@H](O)[C@H]2O)[C@H]2[C@@H]1C(=O)C[C@@H]2C [verbenalin] | 83.3% | 89.5% | 92.5% | 88.9% | AUC(0-t) ([1]; rat, in vivo, po, 3.15 g/kg): 618.13 ± 161.10 ng·h/mL; AUC(0-∞) ([1]; rat, in vivo, po, 3.15 g/kg): 669.34 ± 164.70 ng·h/mL; Cmax ([1]; rat, in vivo, po, 3.15 g/kg): 135.83 ± 52.28 ng/mL; MRT (0-∞) ([1]; rat, in vivo, po, 3.15 g/kg): 7.95 ± 4.85 h; MRT(0-t) ([1]; rat, in vivo, po, 3.15 g/kg): 4.85 ± 0.77 h; T1/2 ([1]; rat, in vivo, po, 3.15 g/kg): 8.37 ± 2.80 h; Tmax ([1]; rat, in vivo, po, 3.15 g/kg): 1.37 ± 0.80 h

Row | Compound | Working solution Accuracy (%) ([2]; 100 ng/mL) | Working solution Accuracy (%) ([2]; 500 ng/mL) | Autosampler for 24 h Accuracy (%) ([3]; 12.5 ng/mL) | Room temperature for 24 h Accuracy (%) ([3]; 12.5 ng/mL) | Freeze thaw cycles Accuracy (%) ([3]; 12.5 ng/mL) | −80°C for 1month Accuracy (%) ([3]; 12.5 ng/mL) | Autosampler for 24 h Accuracy (%) ([3]; 100 ng/mL) | Room temperature for 24 h Accuracy (%) ([3]; 100 ng/mL) | Freeze thaw cycles Accuracy (%) ([3]; 100 ng/mL) | −80°C for 1month Accuracy (%) ([3]; 100 ng/mL) | Autosampler for 24 h Accuracy (%) ([3]; 500 ng/mL) | Room temperature for 24 h Accuracy (%) ([3]; 500 ng/mL) | Freeze thaw cycles Accuracy (%) ([3]; 500 ng/mL) | −80°C for 1month Accuracy (%) ([3]; 500 ng/mL) | Working solution Accuracy (%) ([2]; 12.5 ng/mL) | Working solution Accuracy (%) ([2]; 50 ng/mL) | Autosampler for 24 h Accuracy (%) ([3]; 50 ng/mL) | Room temperature for 24 h Accuracy (%) ([3]; 50 ng/mL) | further results
3 | COc1ccc([C@@H]2CC(=O)c3c(O)cc(O[C@@H]4O[C@H](CO[C@@H]5O[C@@H](C)[C@H](O)[C@@H](O)[C@H]5O)[C@@H](O)[C@H](O)[C@H]4O)cc3O2)cc1O [hesperidin] | 102.0% | 91.0% | 82.1% | 84.1% | 94.3% | 81.8% | 96.0% | 92.3% | 95.7% | 93.1% | 87.8% | 92.3% | 89.1% | 93.6% | 81.7% | 109.0% | 100.0% | 93.7% | AUC(0-t) [1, 4]: 1058.05 ± 267.32 ng·h/mL; AUC(0-∞) [1, 4]: 1058.06 ± 267.32 ng·h/mL; Cmax [1, 4]: 604.36 ± 145.25 ng/mL; MRT (0-∞) [1, 4]: 4.52 ± 0.54 h; MRT(0-t) [1, 4]: 4.52 ± 0.54 h; T1/2 [1, 4]: 1.94 ± 0.03 h; Freeze thaw cycles Accuracy (%) ([3]; 50 ng/mL): 85.4%; −80°C for 1month Accuracy (%) ([3]; 50 ng/mL): 85.8%
